In one data set the target is T1, soybean lipoxygenase-1 (Glycine max, UniProt P08170).
T1 sequence (P08170 1-839): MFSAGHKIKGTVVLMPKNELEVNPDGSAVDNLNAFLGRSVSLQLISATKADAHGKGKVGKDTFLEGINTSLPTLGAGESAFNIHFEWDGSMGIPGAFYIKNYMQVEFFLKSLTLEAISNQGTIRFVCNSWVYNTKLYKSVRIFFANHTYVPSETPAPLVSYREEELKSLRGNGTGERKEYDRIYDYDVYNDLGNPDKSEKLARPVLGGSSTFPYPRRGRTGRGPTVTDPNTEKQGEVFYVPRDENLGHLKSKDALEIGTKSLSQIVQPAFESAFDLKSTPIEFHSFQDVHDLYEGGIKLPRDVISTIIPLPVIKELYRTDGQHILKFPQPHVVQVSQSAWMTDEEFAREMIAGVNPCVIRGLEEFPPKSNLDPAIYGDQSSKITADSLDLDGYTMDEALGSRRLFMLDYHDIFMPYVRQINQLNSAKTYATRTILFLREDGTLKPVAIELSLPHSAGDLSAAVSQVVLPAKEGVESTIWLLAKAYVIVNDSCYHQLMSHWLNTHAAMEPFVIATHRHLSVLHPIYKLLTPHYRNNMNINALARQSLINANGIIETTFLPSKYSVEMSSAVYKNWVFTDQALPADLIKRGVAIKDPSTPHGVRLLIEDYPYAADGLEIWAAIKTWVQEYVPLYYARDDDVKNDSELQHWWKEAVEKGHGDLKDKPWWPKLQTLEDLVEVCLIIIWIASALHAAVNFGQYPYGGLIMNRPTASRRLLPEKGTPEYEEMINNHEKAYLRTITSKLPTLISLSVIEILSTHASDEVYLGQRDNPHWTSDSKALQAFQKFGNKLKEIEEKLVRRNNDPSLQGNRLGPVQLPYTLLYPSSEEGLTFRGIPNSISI
Briefly: Inhibition of soybean lipoxygenase. The format is biochemical. As to the method:
The reaction mixture contained the test compounds dissolved in ethanol and soybean lipoxygenase (250 U/mL) in Tris buffer (pH 9). The reaction was initiated by the addition of sodium linoleate (0.1 mM) and monitored for 7 min at 28 °C, by recording the absorbance of a conjugated diene structure at 234 nm. For the estimation of the type of inhibition, the above experiments were repeated, using sodium linoleate at 1 mM, which is higher than the saturating substrate concentration.

In data set [1] the test system is carrageenan-induced rat paw oedema. Briefly: Carrageenan-induced rat paw oedema. The format is in vivo. To be noted: ip, i.p. 0.15 mmol/kg, 3.5 h post administration, vs controls, read-out: % Oedema Reduction. As to the method:
An aqueous solution of carrageenan was prepared (1% w/v) and 0.1 mL of this was injected i.d. into the right hind paw of female rats; the left paw served as control. The tested compounds (suspended in water with a few drops of Tween 80) were given intra peritoneally (i.p.) (0.15 mmol/kg) 5 min prior to the carrageenan injection. After 3.5 h the hind paws were weighed separately. The produced oedema was estimated as paw weight increase.

Data set [2] deals with Triton WR1339 (tyloxapol) induced hyperlipidemia. As to the kind of experiment: Triton WR1339 (tyloxapol) induced hyperlipidemia: plasma TC, TG, LDL-C. The format is in vivo. The note with it: ip, rat plasma, 24 h, tyloxapol 200 mg/kg i.p.; for inhibition in vivo at 50 µmol/kg: dose i.p. 50 µmol/kg; for inhibition in vivo at 150 µmol/kg: dose i.p. 150 µmol/kg; for inhibition in vivo at 300 µmol/kg: dose i.p. 300 µmol/kg; for inhibition in vivo at 500 µmol/kg: dose i.p. 500 µmol/kg.

The subject of data set [3] is rat hepatic microsomal membrane lipid peroxidation. As to the kind of experiment: Inhibition of rat hepatic microsomal membrane lipid peroxidation induced by ferrous ascorbate. In kind it is biochemical. To be noted: for Antioxidant activity (lipid peroxidation and DPPH experiments): lipid peroxidation inhibition and DPPH interaction, result in words. As to the method:
The incubation mixture contained heat-inactivated rat hepatic microsomal fraction, ascorbic acid (0.2 mM) in Tris–HCl/KCl buffer (pH 7.4) and the test compounds dissolved in dimethylsulphoxide. The reaction was initiated by FeSO4 (10 µM) and the mixture was incubated at 37 °C. Aliquots were taken at various time intervals for 45 min. Lipid peroxidation was assessed spectrophotometrically (535 against 600 nm) by the determination of 2-thiobarbituric acid (TBA) reactive material.
A general note: DPPH is a stable violet radical that fades when it is reduced.

Data set [4] is described as follows: Interaction with the stable radical DPPH. The note with it: DPPH 200 µΜ, 30 min incubation. On the procedure: Compounds (in absolute ethanol, final concentration 50–200 µM) were added to an equal volume of an ethanolic solution of DPPH (final concentration 200 µM) at room temperature (22 ± 2 °C). Absorbance (517 nm) was recorded after 30 min [22].
Setting [5] is: sodium linoleate 0.1 mM, 7 min incubation, read-out: Lipoxygenase IC50.
The mark [6] stands for this setting: read-out: % Reduction LDL-C (LDL cholesterol).
Setting [7] is: read-out: % Reduction TC (total cholesterol).
[8] abbreviates: read-out: % Reduction TG (triglycerides).

“Also recorded” adds a separate entry of the source. Like-named read-outs stand apart in the source and are kept apart here. Bounds are passed on as bounds.

Broadly, the IC50 is the point on the concentration scale where inhibition reaches its midpoint. One may read the melting point as the temperature, or range, at which the solid turns liquid.

As for `CC(C)(C)c1cc(/C=C/C(=O)O)cc(C(C)(C)C)c1O` [BHA, (E)-3-(3,5-di-tert-butyl-4-hydroxyphenyl)acrylic acid, reference compound], at soybean lipoxygenase-1 (setting [5]), the IC50 is over 300 µM.
Turning to `CC(C)Cc1ccc(C(C)C(=O)OC2N=C(c3ccccc3Cl)c3cc(Cl)ccc3NC2=O)cc1` (stereo not shown) [Compound 1, 7-Chloro-5-(2-chlorophenyl)-2-oxo-2,3-dihydro-1H-benzo[e][1,4]diazepin-3-yl 2-(4-isobutylphenyl) propanoate], the melting point was 105 to 122 °C. Moreover, in data set [1], the inhibition in vivo at 150 µmol/kg worked out at 68%. Further, the “Lipoxygenase % Inhibition” value at soybean lipoxygenase-1 (compound 50 µΜ, sodium linoleate 0.1 mM, 7 min incubation) is on record as 14%/50 µΜ. For the same compound, in data set [2] (setting [6]), the inhibition in vivo at 50 µmol/kg was 43% and the inhibition in vivo at 150 µmol/kg came to 56%. Besides, in data set [2] (setting [7]), the inhibition in vivo at 50 µmol/kg was determined as 44% and the inhibition in vivo at 150 µmol/kg was found to be 82%. For the same compound, in data set [2] (setting [8]), the inhibition in vivo at 50 µmol/kg was found to be 57% and the inhibition in vivo at 150 µmol/kg amounted to 65%.
For `COc1ccc2cc(C(C)C(=O)OC3N=C(c4ccccc4Cl)c4cc(Cl)ccc4NC3=O)ccc2c1` (stereo not shown) [Compound 2, 7-Chloro-5-(2-chlorophenyl)-2-oxo-2,3-dihydro-1H-benzo[e][1,4]diazepin-3-yl 2-(6-methoxynaphthalen-2-yl)propanoate], the melting point is 136 to 139 °C. In addition, the inhibition in vivo at 150 µmol/kg in data set [1] turned out to be 46%. Moreover, on soybean lipoxygenase-1 (sodium linoleate 0.1 mM, 7 min incubation), the “Lipoxygenase IC50” value was “-”. Further, the inhibition in vivo at 50 µmol/kg in data set [2] (setting [6]) came out at 42%. Further, the inhibition in vivo at 50 µmol/kg in data set [2] (setting [7]) amounted to 60%. Besides, the inhibition in vivo at 50 µmol/kg in data set [2] (setting [8]) is 71%.
As for `CC(C(=O)OC1N=C(c2ccccc2Cl)c2cc(Cl)ccc2NC1=O)c1cccc(C(=O)c2ccccc2)c1` (stereo not shown) [Compound 3, 7-Chloro-5-(2-chlorophenyl)-2-oxo-2,3-dihydro-1H-benzo[e][1,4]diazepin-3-yl 2-(3-benzoylphenyl)propanoate], the melting point was in the range of 195 to 201 °C. Further, the inhibition in vivo at 150 µmol/kg in data set [1] turned out to be 65%. Moreover, on soybean lipoxygenase-1 (setting [5]), the IC50 came out at 84 µM.
`COc1ccc2c(c1)c(CC(=O)OC1N=C(c3ccccc3Cl)c3cc(Cl)ccc3NC1=O)c(C)n2C(=O)c1ccc(Cl)cc1` (stereo not shown) [Compound 4, 7-Chloro-5-(2-chlorophenyl)-2-oxo-2,3-dihydro-1H-benzo[e][1,4]diazepin-3-yl 2-(1-(4-chlorobenzoyl)-5-methoxy-2-methyl-1H-indol-3-yl)acetate] gave a melting point of 189 to 191 °C. In addition, in data set [1], the inhibition in vivo at 150 µmol/kg is 67%. The IC50 at soybean lipoxygenase-1 (setting [5]) came to 86 µM. Moreover, the inhibition in vivo at 50 µmol/kg in data set [2] (setting [6]) was 60%. In data set [2] (setting [7]), the inhibition in vivo at 50 µmol/kg is 59%. Besides, in data set [2] (setting [8]), the inhibition in vivo at 50 µmol/kg was 59%.
For `Cc1c(Cl)cccc1Nc1ccccc1C(=O)OC1N=C(c2ccccc2Cl)c2cc(Cl)ccc2NC1=O` (stereo not shown) [Compound 5, 7-Chloro-5-(2-chlorophenyl)-2-oxo-2,3-dihydro-1H-benzo[e][1,4]diazepin-3-yl 2-((3-chloro-2-methylphenyl)amino)benzoate], the melting point is 206 to 207 °C. Besides, the inhibition in vivo at 150 µmol/kg in data set [1] is 55%. Besides, the “Lipoxygenase % Inhibition” value at soybean lipoxygenase-1 (compound 100 µΜ, sodium linoleate 0.1 mM, 7 min incubation) was 22%/100 µΜ. Also, the inhibition in vivo at 50 µmol/kg in data set [2] (setting [6]) turned out to be 48%. For the same compound, the inhibition in vivo at 50 µmol/kg in data set [2] (setting [7]) came out at 56%. In data set [2] (setting [8]), the inhibition in vivo at 50 µmol/kg was 57%.
For `O=C(CCCCC1CCSS1)OC1N=C(c2ccccc2Cl)c2cc(Cl)ccc2NC1=O` (stereo not shown) [Compound 6, 7-Chloro-5-(2-chlorophenyl)-2-oxo-2,3-dihydro-1H-benzo[e][1,4]diazepin-3-yl 5-(1,2-dithiolan-3-yl)pentanoate], the melting point is 184 to 189 °C. Also, in data set [1], the inhibition in vivo at 150 µmol/kg was 39%. The compound also returned an IC50 on soybean lipoxygenase-1 of 60 µM. The “Antioxidant activity (lipid peroxidation and DPPH experiments)” value in data set [3] was “do not express any antioxidant activity; also recorded: inactive”. Besides, in data set [2] (setting [6]), the inhibition in vivo at 50 µmol/kg is 47% and the inhibition in vivo at 150 µmol/kg was 60%. Besides, in data set [2] (setting [7]), the inhibition in vivo at 50 µmol/kg was found to be 48% and the inhibition in vivo at 150 µmol/kg was 82%. Further, in data set [2] (setting [8]), the inhibition in vivo at 50 µmol/kg was 39% and the inhibition in vivo at 150 µmol/kg worked out at 41%.
In the case of `O=C(Cc1c[nH]c2ccccc12)OC1N=C(c2ccccc2Cl)c2cc(Cl)ccc2NC1=O` (stereo not shown) [Compound 9, 7-Chloro-5-(2-chlorophenyl)-2-oxo-2,3-dihydro-1H-benzo[e][1,4]diazepin-3-yl 2-(1H-indol-3-yl)acetate], the melting point fell in the range of 257 to 258 °C. The inhibition in vivo at 150 µmol/kg in data set [1] was 43%. For the same compound, on soybean lipoxygenase-1, half-maximal inhibition (IC50) required 255 µM. Further, in data set [3], the “Antioxidant activity (lipid peroxidation and DPPH experiments)” value is “do not express any antioxidant activity”.
In the case of `CC(C)Cc1ccc(C(C)C(=O)O)cc1` (stereo not shown) [Ibuprofen, reference compound], the inhibition in vivo at 150 µmol/kg in data set [1] was 36%. In addition, the inhibition in vivo at 300 µmol/kg in data set [2] (setting [6]) is 42%; in data set [2] (setting [7]) it was 41%; in data set [2] (setting [8]), 38%.
With `COc1ccc2c(c1)c(CC(=O)O)c(C)n2C(=O)c1ccc(Cl)cc1` [Indomethacin, reference compound], the inhibition in vivo at 150 µmol/kg in data set [1] amounted to 42%.
As to `COc1ccc2cc([C@H](C)C(=O)O)ccc2c1` [Naproxen, reference compound], in data set [1], the inhibition in vivo at 150 µmol/kg was determined as 11%. Also, the inhibition in vivo at 500 µmol/kg amounted to 26% in data set [2] (setting [6]), 53% in data set [2] (setting [7]) and 44% in data set [2] (setting [8]).
In the case of `Cc1c(Cl)cccc1Nc1ccccc1C(=O)O` [Tolfenamic acid, reference compound], in data set [1], the inhibition in vivo at 150 µmol/kg came to 24%. Further, at soybean lipoxygenase-1 (setting [5]), the IC50 worked out at 170 µM.
As to `Cc1c(C)c2c(c(C)c1O)CCC(C)(C(=O)O)O2` (stereo not shown) [Trolox, 6-hydroxy-2,5,7,8-tetramethylchroman-2-carboxylic acid, reference compound], the IC50 is over 300 µM on soybean lipoxygenase-1 (setting [5]) and 25 µM in data set [3] (rat hepatic microsomal fraction, ferrous ascorbate, 45 min incubation). The “Percent Interaction with DPPH” value in data set [4] (compound 50 µΜ) was determined as 38%; in data set [4] (compound 100 µΜ), 90%; in data set [4] (compound 200 µΜ) it was 92%.

Values taken from publication PMC6767220, “Active Anti-Inflammatory and Hypolipidemic Derivatives of Lorazepam” (Molecules, 2019).
